Data published in PubChem BioAssay (NCI).
Several values for one entry are separate records, joined by “and”; a condition that tells them apart may be missing. Identical values can stand only once.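 Protocol summary: plate cells (96-well), add compound at 5 concentrations, incubate 48 h, interpolate endpoints linearly. At the GI50, growth is halved. TGI denotes the concentration required for complete inhibition of growth.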

What follows are compounds tested on MDA-MB-468 breast (assay: NCI anticancer screen, dose series, 48 h).

SMILES | GI50 | TGI [µM]
O=C1Nc2ccc(C(=O)c3ccco3)cc2/C1=C/c1cc(Cl)c(O)c(Cl)c1 | 1.86 µM | 16
COc1cc(OC)cc(C2CC(=O)Nc3c2c(C)nn3-c2nc3ccccc3[nH]2)c1 (stereo not given) | 3.93 µM | > 100
CC[C@H](NC(=O)[C@H](C)NC)C(=O)N1C[C@@H](O)C[C@H]1Cc1c(-c2[nH]c3cc(F)ccc3c2C[C@@H]2C[C@H](O)CN2C(=O)[C@H](CC)NC(=O)[C@H](C)NC)[nH]c2cc(F)ccc12 | 0.2 µM | 28
CC(C)=CCCC(C)c1ccc(C)c2c1OCN(CC1CCNCC1)C2 (stereo not given) | 5.01 µM | 18.5
O=c1c(Oc2ccc(F)cc2F)cc2cnc(NC3CCOCC3)nc2n1C1CCS(=O)(=O)CC1 | > 25 µM | > 25
C=C1C(=O)O[C@H]2[C@H]1CC/C(CNC(=O)c1cc3cc(OC)ccc3[nH]1)=C\CC[C@@]1(C)O[C@@H]21 | 0.714 µM | 2.61
COc1cc(OC)c(/C=C/S(=O)(=O)Cc2cnc(OC)c(N)c2)c(OC)c1 | < 0.0212 µM | > 100
Cc1nc2sc(C(=O)Nc3cccc(Cl)c3C)c(N)c2cc1C(=O)/C=C/c1ccccc1 | 0.212 µM | 0.811
COc1ccc(CN(C)c2ccc(CO)c(Cl)c2)cc1 | 0.0551 µM | 0.197
Cc1cc(C)c([O-])c(CN(C)CCN(C)Cc2cc(C)cc(C)c2[O-])c1.O=C([O-])c1cccc(C(=O)[O-])n1.[Ti+4] | 1.33 µM | 3.65
COc1cc(C(=O)/C(C)=C/c2c[nH]c3ccccc23)cc(OC)c1OC | 0.00334 µM | –
C#C[C@]1(O)CC[C@H]2[C@@H]3CC=C4c5sc(Nc6cccc(Cl)n6)nc5CC[C@]4(C)[C@H]3CC[C@@]21C | 1.49 µM | 4.05
O=C(O[C@H]1CN[C@H](C#Cc2cc3ncnc(Nc4ccc5c(ccn5Cc5cc(F)ccc5F)c4)c3s2)C1)N1CCOCC1 | 0.141 µM | 1.59
CC(=O)N[C@H]1C=C[C@@H]2/C=C(C)/C=C/[C@@H](C)[C@H]([C@H](C)[C@H](O)[C@@H](C)NC(C)=O)OC(=O)/C=C/C=C(C)\C=C\[C@]2(C)C1 | 0.00184 µM and 0.0045 µM | –
O=c1c2cc(Cl)ccc2oc2ccc(OCCCCCN3CCCCC3)cc12 | 5.19 µM | 12.7
O=[N+]([O-])c1cc(Cl)c(Cl)c([N+](=O)[O-])c1Cl | 1.05 µM | 2.64
COc1ccc(/C=N\NC(=O)CN2CCN(c3cc4c(cc3F)c(=O)c(C(=O)N/N=C/c3ccc(OC)c(OC)c3)cn4C3CC3)CC2)cc1OC | 3.07 µM | 8.35
Cc1ccccc1NC(=O)N/C(N)=N/c1nc(-c2cccc([N+](=O)[O-])c2)cs1 | 1.64 µM | 7.24
CCOC(=O)Nc1nc2ccc(Cn3cccc3)cc2[nH]1 | 2.44 µM | > 100
COc1cc(Nc2nccc(Nc3ccc4c(C)[nH]nc4c3)n2)cc(OC)c1OC | 2.12 µM | 7.86
CC(=O)c1c(C)[nH]c(-c2nc3ccc(N4CCN(C)CC4)cc3[nH]2)c1-c1ccc(OCC2CCOCC2)cc1 | 0.302 µM | 7.88
CN[C@@H](C)C(=O)N[C@H](C(=O)N1CCC[C@H]1C(=O)N[C@H]1c2ccccc2C[C@H]1OCC#CC#CCO[C@@H]1Cc2ccccc2[C@@H]1NC(=O)[C@@H]1CCCN1C(=O)[C@@H](NC(=O)[C@H](C)NC)C1CCCCC1)C1CCCCC1 | < 0.01 µM | 2.18
CO[C@@H]1/C=C\C=C(/C)C(=O)NC2=CC(=O)C(NCCN(C)C)=C(C[C@@H](C)C[C@@H](OC)[C@@H](O)[C@H](C)/C=C(\C)[C@H]1OC(N)=O)C2=O | 0.0187 µM | 0.0656
CC1=C2[C@@H](CC1)[C@]1(C)O[C@@](C3CCCCC3)(C[C@H]1OC(=O)CO)[C@H]2OC(=O)/C=C/c1ccccc1 | 9.64 µM | 24.4
NOCC(=O)O | > 100 µM | > 100
